Experimental data from ChEMBL document CHEMBL1201862, “PubChem BioAssay data set” (2004).
Activity calls are given as the source filed them.

Key:
[1] = target: Peroxisome proliferator-activated receptor gamma/Nuclear receptor coactivator 3 (Homo sapiens, UniProt P37231); test: TR-FRET dose response biochemical High Throughput Screening assay for agonists of the steroid receptor coactivator 3 (SRC-3) recruitment by the peroxisome proliferator-activated receptor gamma (PPAR gamma): non-selective agonists. [Related pubchem assays: 1301 (Confirmation screen.), 1048 (Primary screen.)]; format: functional
Peroxisome proliferator-activated receptor gamma/Nuclear receptor coactivator 3, sequence (P37231 whole entry): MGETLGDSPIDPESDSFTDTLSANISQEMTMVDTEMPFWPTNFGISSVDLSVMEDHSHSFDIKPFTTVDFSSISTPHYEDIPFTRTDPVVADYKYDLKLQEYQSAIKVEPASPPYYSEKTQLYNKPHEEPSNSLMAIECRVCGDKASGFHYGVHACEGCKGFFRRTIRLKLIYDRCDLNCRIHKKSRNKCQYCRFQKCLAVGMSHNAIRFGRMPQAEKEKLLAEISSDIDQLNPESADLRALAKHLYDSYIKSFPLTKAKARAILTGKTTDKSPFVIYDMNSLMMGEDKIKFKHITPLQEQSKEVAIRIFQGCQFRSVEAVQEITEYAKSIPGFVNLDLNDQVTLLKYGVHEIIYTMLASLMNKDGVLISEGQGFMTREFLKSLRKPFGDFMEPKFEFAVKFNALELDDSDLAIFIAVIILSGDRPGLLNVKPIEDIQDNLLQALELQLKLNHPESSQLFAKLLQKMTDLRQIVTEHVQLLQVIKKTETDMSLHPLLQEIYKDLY
Peroxisome proliferator-activated receptor gamma/Nuclear receptor coactivator 3, sequence (Q9Y6Q9 whole entry, further chain): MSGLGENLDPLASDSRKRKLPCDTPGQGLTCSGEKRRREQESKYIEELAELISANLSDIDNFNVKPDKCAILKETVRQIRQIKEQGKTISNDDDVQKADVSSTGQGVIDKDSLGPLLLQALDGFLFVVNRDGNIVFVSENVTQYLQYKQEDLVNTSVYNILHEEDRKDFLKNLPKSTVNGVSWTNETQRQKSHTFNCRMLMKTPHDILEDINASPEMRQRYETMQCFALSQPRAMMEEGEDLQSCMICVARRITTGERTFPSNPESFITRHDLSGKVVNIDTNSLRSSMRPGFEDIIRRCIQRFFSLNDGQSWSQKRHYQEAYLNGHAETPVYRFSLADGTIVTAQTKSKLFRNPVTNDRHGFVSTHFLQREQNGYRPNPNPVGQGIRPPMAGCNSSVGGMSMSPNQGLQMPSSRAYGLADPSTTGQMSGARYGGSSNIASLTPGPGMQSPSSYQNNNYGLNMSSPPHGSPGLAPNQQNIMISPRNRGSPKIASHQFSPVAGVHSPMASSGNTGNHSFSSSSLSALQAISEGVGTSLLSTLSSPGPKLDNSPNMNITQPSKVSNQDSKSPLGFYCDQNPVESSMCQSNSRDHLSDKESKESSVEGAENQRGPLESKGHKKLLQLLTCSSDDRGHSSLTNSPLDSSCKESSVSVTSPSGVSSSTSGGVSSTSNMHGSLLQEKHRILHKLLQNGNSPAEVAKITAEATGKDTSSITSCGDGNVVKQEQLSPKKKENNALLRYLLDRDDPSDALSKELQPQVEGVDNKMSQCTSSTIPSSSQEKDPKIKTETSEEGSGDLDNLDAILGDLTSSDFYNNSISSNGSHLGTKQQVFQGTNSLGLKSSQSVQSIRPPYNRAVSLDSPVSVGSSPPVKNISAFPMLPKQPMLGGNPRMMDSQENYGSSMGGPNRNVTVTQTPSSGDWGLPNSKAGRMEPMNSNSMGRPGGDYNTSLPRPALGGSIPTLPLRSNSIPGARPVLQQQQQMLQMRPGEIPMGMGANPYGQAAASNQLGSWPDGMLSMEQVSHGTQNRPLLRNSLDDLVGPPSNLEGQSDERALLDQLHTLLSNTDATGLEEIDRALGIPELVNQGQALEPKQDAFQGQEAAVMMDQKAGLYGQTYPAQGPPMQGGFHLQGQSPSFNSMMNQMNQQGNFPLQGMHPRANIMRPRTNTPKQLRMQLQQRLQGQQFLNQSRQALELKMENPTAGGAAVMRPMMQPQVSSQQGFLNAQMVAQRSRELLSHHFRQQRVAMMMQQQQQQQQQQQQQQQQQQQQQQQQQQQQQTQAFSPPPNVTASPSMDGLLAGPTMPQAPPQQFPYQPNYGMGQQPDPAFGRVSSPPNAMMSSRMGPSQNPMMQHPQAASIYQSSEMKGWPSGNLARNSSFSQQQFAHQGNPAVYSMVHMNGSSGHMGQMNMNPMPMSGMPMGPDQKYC

[2] = target: Peroxisome proliferator-activated receptor gamma/Nuclear receptor coactivator 2 (Homo sapiens, UniProt P37231); test: (§1) TR-FRET dose response biochemical High Throughput Screening assay for agonists of the steroid receptor coactivator 2 (SRC-2) recruitment by the peroxisome proliferator-activated receptor gamma (PPAR gamma): non-selective agonists. [Related pubchem assays: 1297, 1032 ]; format: functional
Peroxisome proliferator-activated receptor gamma/Nuclear receptor coactivator 2, sequence (P37231 whole entry): as the sequence (P37231 whole entry) above
Peroxisome proliferator-activated receptor gamma/Nuclear receptor coactivator 2, sequence (Q15596 whole entry, further chain): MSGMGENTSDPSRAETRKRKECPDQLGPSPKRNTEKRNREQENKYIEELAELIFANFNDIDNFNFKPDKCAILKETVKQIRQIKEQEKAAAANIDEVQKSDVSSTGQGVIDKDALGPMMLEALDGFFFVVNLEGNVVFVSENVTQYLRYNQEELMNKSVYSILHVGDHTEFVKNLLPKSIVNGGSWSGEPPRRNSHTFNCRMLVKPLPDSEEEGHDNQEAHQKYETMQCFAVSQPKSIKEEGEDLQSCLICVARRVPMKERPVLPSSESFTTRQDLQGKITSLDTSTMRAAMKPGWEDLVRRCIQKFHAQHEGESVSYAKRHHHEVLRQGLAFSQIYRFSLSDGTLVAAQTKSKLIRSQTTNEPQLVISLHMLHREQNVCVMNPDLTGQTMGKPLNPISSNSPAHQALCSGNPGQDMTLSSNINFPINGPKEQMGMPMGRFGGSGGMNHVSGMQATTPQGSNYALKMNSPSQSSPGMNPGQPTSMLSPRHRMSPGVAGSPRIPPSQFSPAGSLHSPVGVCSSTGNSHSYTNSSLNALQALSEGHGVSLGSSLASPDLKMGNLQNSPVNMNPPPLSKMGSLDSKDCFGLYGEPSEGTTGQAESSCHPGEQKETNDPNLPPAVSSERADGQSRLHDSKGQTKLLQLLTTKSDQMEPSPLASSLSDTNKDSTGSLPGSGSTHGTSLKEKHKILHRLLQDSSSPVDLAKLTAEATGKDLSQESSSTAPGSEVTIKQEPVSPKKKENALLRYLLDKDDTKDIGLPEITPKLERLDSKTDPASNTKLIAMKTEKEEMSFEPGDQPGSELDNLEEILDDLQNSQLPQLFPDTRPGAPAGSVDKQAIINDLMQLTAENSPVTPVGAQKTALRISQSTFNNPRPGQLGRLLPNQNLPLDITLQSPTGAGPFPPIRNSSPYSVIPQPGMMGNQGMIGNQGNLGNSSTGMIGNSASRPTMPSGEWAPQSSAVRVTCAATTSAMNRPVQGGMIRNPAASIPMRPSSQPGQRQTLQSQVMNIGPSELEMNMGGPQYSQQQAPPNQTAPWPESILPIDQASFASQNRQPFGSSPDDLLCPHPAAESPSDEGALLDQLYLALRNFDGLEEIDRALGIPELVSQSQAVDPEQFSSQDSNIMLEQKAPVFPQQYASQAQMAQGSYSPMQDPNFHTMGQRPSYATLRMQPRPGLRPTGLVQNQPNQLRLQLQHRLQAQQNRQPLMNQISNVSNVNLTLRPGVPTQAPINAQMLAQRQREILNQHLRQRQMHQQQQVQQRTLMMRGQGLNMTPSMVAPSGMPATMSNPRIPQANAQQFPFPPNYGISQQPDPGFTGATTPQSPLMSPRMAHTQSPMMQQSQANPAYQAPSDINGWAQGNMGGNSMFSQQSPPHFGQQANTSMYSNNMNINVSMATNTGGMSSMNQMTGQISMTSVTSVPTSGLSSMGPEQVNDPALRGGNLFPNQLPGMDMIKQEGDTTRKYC

[3] = target: Peroxisome proliferator-activated receptor gamma/Nuclear receptor coactivator 1 (Homo sapiens, UniProt P37231); test: as §1, with “1 (SRC-1)” for “2 (SRC-2)”, “assays (depositor defined):AID1300, AID1808, AID504735, AID631]” for “assays: 1297, 1032 ]”; format: protein assay
Cytochrome P450 3A4 = Cytochrome P450 3A4 (Homo sapiens, UniProt P08684);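 note: CYP3A4 tested as one member of a cytochrome P450 panel screen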
Cytochrome P450 3A4, sequence (P08684 whole entry): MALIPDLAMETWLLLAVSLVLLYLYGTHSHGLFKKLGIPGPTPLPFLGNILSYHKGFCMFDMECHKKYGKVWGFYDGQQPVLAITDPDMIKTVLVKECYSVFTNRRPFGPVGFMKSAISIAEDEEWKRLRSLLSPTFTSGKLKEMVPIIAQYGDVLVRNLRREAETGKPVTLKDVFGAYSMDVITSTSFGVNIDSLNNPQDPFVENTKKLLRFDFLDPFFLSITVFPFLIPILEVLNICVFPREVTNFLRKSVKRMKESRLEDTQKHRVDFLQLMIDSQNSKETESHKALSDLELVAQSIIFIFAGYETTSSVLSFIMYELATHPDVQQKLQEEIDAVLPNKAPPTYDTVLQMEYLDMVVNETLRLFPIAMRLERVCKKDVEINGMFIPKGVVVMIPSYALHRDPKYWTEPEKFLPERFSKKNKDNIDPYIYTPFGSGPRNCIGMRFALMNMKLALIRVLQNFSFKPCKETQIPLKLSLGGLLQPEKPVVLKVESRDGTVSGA

[4] = target: T1, Alkaline phosphatase, tissue-nonspecific isozyme (Homo sapiens, UniProt P05186); test: potency against alkaline phosphatase TNAP – biochemical, luminescent, dose response, SAR follow-up (AID 1056)
T1 sequence (P05186 whole entry): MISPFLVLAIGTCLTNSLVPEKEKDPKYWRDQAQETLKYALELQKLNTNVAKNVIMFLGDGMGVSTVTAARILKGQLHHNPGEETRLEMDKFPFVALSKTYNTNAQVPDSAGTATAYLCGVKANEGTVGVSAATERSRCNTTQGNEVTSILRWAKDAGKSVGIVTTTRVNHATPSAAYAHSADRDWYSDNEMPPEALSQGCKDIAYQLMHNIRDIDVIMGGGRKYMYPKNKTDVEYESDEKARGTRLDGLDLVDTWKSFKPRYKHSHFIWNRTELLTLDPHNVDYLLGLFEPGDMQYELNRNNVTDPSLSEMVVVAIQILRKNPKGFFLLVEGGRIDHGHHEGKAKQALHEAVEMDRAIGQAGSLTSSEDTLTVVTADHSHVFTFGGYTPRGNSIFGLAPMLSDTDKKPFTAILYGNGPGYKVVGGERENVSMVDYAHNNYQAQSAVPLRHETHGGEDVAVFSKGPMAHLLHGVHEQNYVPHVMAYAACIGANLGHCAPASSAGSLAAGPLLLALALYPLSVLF

[5] = target: Glyceraldehyde-3-phosphate dehydrogenase (Homo sapiens, UniProt P04406)
Glyceraldehyde-3-phosphate dehydrogenase, sequence (P04406 whole entry): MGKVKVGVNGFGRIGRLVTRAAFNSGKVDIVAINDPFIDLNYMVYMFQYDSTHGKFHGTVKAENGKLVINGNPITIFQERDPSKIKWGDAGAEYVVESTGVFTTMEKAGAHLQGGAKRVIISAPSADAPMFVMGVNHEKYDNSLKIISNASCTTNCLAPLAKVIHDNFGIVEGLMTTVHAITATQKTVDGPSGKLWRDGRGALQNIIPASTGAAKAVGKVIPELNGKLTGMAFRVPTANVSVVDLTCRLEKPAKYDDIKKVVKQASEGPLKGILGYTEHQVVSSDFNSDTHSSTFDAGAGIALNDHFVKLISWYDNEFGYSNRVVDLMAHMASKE

Cytochrome P450 2D6 = Cytochrome P450 2D6 (Homo sapiens, UniProt P10635);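 note: CYP2D6 member of a cytochrome P450 panel assay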
Cytochrome P450 1A2 = target: T2, Cytochrome P450 1A2 (Homo sapiens, UniProt P05177);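 note: PubChem cytochrome P450 panel assay, CYP1A2 panel member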
T2 sequence (P05177 whole entry): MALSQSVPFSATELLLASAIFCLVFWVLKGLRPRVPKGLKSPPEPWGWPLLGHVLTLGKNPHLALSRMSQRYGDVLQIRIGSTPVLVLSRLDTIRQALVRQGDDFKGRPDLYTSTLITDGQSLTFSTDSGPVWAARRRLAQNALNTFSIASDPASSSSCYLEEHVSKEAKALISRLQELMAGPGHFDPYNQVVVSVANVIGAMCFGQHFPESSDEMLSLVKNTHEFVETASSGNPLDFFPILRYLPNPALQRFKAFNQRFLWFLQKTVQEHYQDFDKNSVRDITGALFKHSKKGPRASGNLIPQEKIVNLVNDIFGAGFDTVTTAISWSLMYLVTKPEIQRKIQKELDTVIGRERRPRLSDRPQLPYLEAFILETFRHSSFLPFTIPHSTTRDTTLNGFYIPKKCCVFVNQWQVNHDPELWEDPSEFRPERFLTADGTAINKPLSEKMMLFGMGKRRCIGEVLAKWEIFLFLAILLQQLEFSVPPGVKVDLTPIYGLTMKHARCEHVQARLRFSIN

Protein Wnt-3a = Protein Wnt-3a (Mus musculus, UniProt P27467); test: antagonism of Wnt3a pathway luciferase reporter – Wnt-LIGHT cells, luminescence, selectivity assay for Gli-SUFU antagonist project, dose response (AID 651570); format: functional; details: read-out: IC50_Mean;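 note: Wnt-LIGHT reporter cells stimulated with conditioned medium from Wnt3a-producing cells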
Cytochrome P450 2C9 = Cytochrome P450 2C9 (Homo sapiens, UniProt P11712)
Cytochrome P450 2C19 = Cytochrome P450 2C19 (Homo sapiens, UniProt P33261); test: Cytochrome panel assay with activity outcomes. Panel member name: p450-cyp2c19 Compounds with AC50 equal or less than 10 uM are considered active; format: functional
[6] = microbe, parasite or virus in culture; format: functional; details: Mycobacterium tuberculosis
[7] = Luminescence Cell-Based Dose Retest to Confirm Inhibitors of Cancer Stem Cells. [Related pubchem assays (depositor defined):AID2717, AID2721]; format: functional; details: Homo sapiens
[8] = NIH3T3 cell viability loss – ATP luminescence, mouse fibroblasts, counter-screen, dose response (AID 2010); format: functional, cell-based;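 note: cells exposed to compound for about 90 hours before reading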
[9] = target: Voltage-dependent T-type calcium channel subunit alpha-1H (Homo sapiens, UniProt O95180); format: functional;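 note: channel activity triggered by adding a high calcium stimulation buffer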
[10] = Trypanosoma cruzi growth suppression in host cells – NIH3T3 host cells, beta-gal luminescence, confirmation (AID 2044); format: functional, cell-based;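 note: intracellular parasites grown in NIH/3T3 mouse fibroblasts as host cells; luminescent beta-galactosidase reporter signal from transgenic T. cruzi replicating inside host cells; inhibitors lower the luminescence signal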

With `COC(=O)c1c(C)[nH]c(C(=O)C(C)Sc2nnc(-c3cc(OC)c(OC)c(OC)c3)o2)c1C` (stereo not given) the EC50 [1] was > 79.4 µM (not active), the EC50 [2] was > 79.4 µM (not active) and the EC50 [3] was > 79.4 µM (inactive).

With `O=C(Nc1ccccc1)N1CCC2(CC1)CCN(C(=O)Oc1ccccc1)CC2` the AC50 (Cytochrome P450 3A4) was “inconclusive”.

For `NC(=O)c1cn(S(=O)(=O)c2ccc3ccccc3c2)c2ccccc12`, the IC50 [4] was > 100 µM (inactive) and the IC50 [5] was > 100 µM (not active).

For `CN1CCN(c2ncc3nc(-c4ccc(Cl)cc4)c(=O)n(Cc4ccc(F)cc4)c3n2)CC1`, the AC50 (Cytochrome P450 2D6) was 39.8 µM (inconclusive), the AC50 (Cytochrome P450 1A2) was 31.6 µM (inconclusive) and the AC50 (Cytochrome P450 3A4) was “inconclusive”.

For `COc1cccc(-c2cc(C(=O)O)[nH]n2)c1`, the IC50 [4] was > 100 µM (inactive) and the IC50 [5] was > 100 µM (not active).

With `CCOC(=O)N1CCN(C(=O)c2ccc(CSc3ccc(Cl)cc3)cc2)CC1` the IC50 (Protein Wnt-3a) was 15.6 µM (active).

In the case of `CC(=O)c1sc(NC(=O)C(C)C)nc1C`, the AC50 (Cytochrome P450 2C9) is reported as 39.8 µM (inconclusive), the EC50 [1] is reported as > 79.4 µM (not active) and the EC50 [2] is reported as > 26.5 µM (not active). For the same compound, the EC50 [3] was > 79.4 µM (inactive) and the AC50 (Cytochrome P450 2C19) was “inconclusive”.

In the case of `Cc1ccccc1N1CCN(C(=O)c2ccc(Oc3ccc(C(F)(F)F)cn3)cc2)CC1`, the CC50 [6] is reported as > 40 µM (active), the AC50 [7] is reported as 3.43 µM (active) and the EC50 [8] is reported as > 60 µM (not active). For the same compound, the EC50 [9] was 5.89 µM (active) and the EC50 [10] was 2.32 µM (active).

For `COc1ccc(NC(=O)CSc2c3c(nc4ccccc24)CCCC3)c(OC)c1`, the EC50 [1] was > 79.4 µM (not active), the EC50 [2] was 35.4 µM (not active) and the EC50 [3] was > 79.4 µM (inactive).
